Species: Rattus norvegicus
Assay: Open TG-GATES - Regimen: Daily Repeat
Format: toxicity, organism-based, Sprague-Dawley
Set-up: regimen Daily Repeat, gender Male, age 6 weeks
Conditions: in vivo, po, 10 mg/kg, route gavage, dose level Middle; for APTT / Bas / Eos / Fbg / Hb / Ht / Lym / MCH / MCHC / MCV / Mono / Neu / PT / Plat / RBC / Ret / WBC: tissue Blood; for KIDNEY_L / KIDNEY_R / KIDNEY_TOTAL: tissue Kidney; for LIVER: tissue Liver; for A/G / ALP / ALT / AST / BUN / CRE / Ca / Cl / DBIL / GLC / IP / K / LDH / Na / PL / RALB / TBIL / TC / TG / TP / gamma-GTP: tissue Plasma

`C=CCO` [ALLYL ALCOHOL] was tested, and the TERMINAL_BW (72 h, time 3 day) was 233.1 g, the APTT (72 h, time 3 day) was 20.8 s and the Bas (72 h, time 3 day) was 0%. For the same compound, the Eos (72 h, time 3 day) was 0.6%, the Fbg (72 h, time 3 day) was 233.2 mg/dL and the Hb (72 h, time 3 day) was 13.9 g/dL. For the same compound, the Ht (72 h, time 3 day) was 40.8%, the Lym (72 h, time 3 day) was 77.4% and the MCH (72 h, time 3 day) was 20.6 pg. The MCHC (72 h, time 3 day) was 33.9%, the MCV (72 h, time 3 day) was 60.7 fL and the Mono (72 h, time 3 day) was 3.6%. For the same compound, the Neu (72 h, time 3 day) was 17.8%, the PT (72 h, time 3 day) was 11.7 s and the Plat (72 h, time 3 day) was 133.2 x10_4/uL. The RBC (72 h, time 3 day) was 672.8 x10_4/ul, the Ret (72 h, time 3 day) was 5.1% and the WBC (72 h, time 3 day) was 116 x10_2/uL. For the same compound, the KIDNEY_L (72 h, time 3 day) was 1 g, the KIDNEY_R (72 h, time 3 day) was 1 g and the KIDNEY_TOTAL (72 h, time 3 day) was 2.1 g. For the same compound, the LIVER (72 h, time 3 day) was 11.2 g, the A/G (72 h, time 3 day) was 1.6 and the ALP (72 h, time 3 day) was 921.4 IU/L. For the same compound, the ALT (72 h, time 3 day) was 35.2 IU/L, the AST (72 h, time 3 day) was 67.6 IU/L and the BUN (72 h, time 3 day) was 14 mg/dL. It also gave a CRE (72 h, time 3 day) of 0.4 mg/dL, a Ca (72 h, time 3 day) of 10.7 mg/dL and a Cl (72 h, time 3 day) of 103 meq/L. For the same compound, the DBIL (72 h, time 3 day) was 0.066 mg/dL, the GLC (72 h, time 3 day) was 207.8 mg/dL and the IP (72 h, time 3 day) was 6.6 mg/dL. For the same compound, the K (72 h, time 3 day) was 3.9 meq/L, the LDH (72 h, time 3 day) was 226 IU/L and the Na (72 h, time 3 day) was 140.2 meq/L. The PL (72 h, time 3 day) was 142 mg/dL, the RALB (72 h, time 3 day) was 3.3 g/dL and the TBIL (72 h, time 3 day) was 0.1 mg/dL. It also gave a TC (72 h, time 3 day) of 78 mg/dL, a TG (72 h, time 3 day) of 78 mg/dL and a TP (72 h, time 3 day) of 5.3 g/dL. For the same compound, the gamma-GTP (72 h, time 3 day) was 1 IU/L, the TERMINAL_BW ([…], time 7 day) was 267.6 g and the TERMINAL_BW ([…], time 14 day) was 329.3 g. The TERMINAL_BW ([…], time 28 day) was 403.7 g, the APTT ([…], time 7 day) was 18.2 s and the Bas ([…], time 7 day) was 0%. The Eos ([…], time 7 day) was 0.8%, the Fbg ([…], time 7 day) was 219 mg/dL and the Hb ([…], time 7 day) was 13.5 g/dL. It also gave a Ht ([…], time 7 day) of 39.7%, a Lym ([…], time 7 day) of 82.6% and an MCH ([…], time 7 day) of 20.5 pg. The MCHC ([…], time 7 day) was 34%, the MCV ([…], time 7 day) was 60.2 fL and the Mono ([…], time 7 day) was 2.6%. The Neu ([…], time 7 day) was 13.4%, the PT ([…], time 7 day) was 12 s and the Plat ([…], time 7 day) was 137.3 x10_4/uL. The RBC ([…], time 7 day) was 661 x10_4/ul, the Ret ([…], time 7 day) was 4.5% and the WBC ([…], time 7 day) was 128.8 x10_2/uL. For the same compound, the APTT ([…], time 14 day) was 19.2 s, the Bas ([…], time 14 day) was 0% and the Eos ([…], time 14 day) was 1%. It also gave a Fbg ([…], time 14 day) of 225.8 mg/dL, a Hb ([…], time 14 day) of 14.3 g/dL and a Ht ([…], time 14 day) of 41.2%. It also gave a Lym ([…], time 14 day) of 77.8%, an MCH ([…], time 14 day) of 20.4 pg and an MCHC ([…], time 14 day) of 34.7%. The MCV ([…], time 14 day) was 58.8 fL, the Mono ([…], time 14 day) was 3% and the Neu ([…], time 14 day) was 17.8%. It also gave a PT ([…], time 14 day) of 11.8 s, a Plat ([…], time 14 day) of 134 x10_4/uL and an RBC ([…], time 14 day) of 700.4 x10_4/ul. The Ret ([…], time 14 day) was 4.5%, the WBC ([…], time 14 day) was 123.8 x10_2/uL and the APTT ([…], time 28 day) was 20 s. It also gave a Bas ([…], time 28 day) of 0%, an Eos ([…], time 28 day) of 1% and a Fbg ([…], time 28 day) of 225.2 mg/dL. The Hb ([…], time 28 day) was 15.2 g/dL, the Ht ([…], time 28 day) was 44% and the Lym ([…], time 28 day) was 80.8%. It also gave an MCH ([…], time 28 day) of 19.6 pg, an MCHC ([…], time 28 day) of 34.5% and an MCV ([…], time 28 day) of 57 fL. For the same compound, the Mono ([…], time 28 day) was 1.6%, the Neu ([…], time 28 day) was 15.6% and the PT ([…], time 28 day) was 12 s. The Plat ([…], time 28 day) was 108.6 x10_4/uL, the RBC ([…], time 28 day) was 772.6 x10_4/ul and the Ret ([…], time 28 day) was 3%. For the same compound, the WBC ([…], time 28 day) was 116.6 x10_2/uL, the KIDNEY_L ([…], time 7 day) was 1.1 g and the KIDNEY_R ([…], time 7 day) was 1.1 g. For the same compound, the KIDNEY_TOTAL ([…], time 7 day) was 2.2 g, the KIDNEY_L ([…], time 14 day) was 1.3 g and the KIDNEY_R ([…], time 14 day) was 1.3 g. The KIDNEY_TOTAL ([…], time 14 day) was 2.6 g, the KIDNEY_L ([…], time 28 day) was 1.4 g and the KIDNEY_R ([…], time 28 day) was 1.4 g. It also gave a KIDNEY_TOTAL ([…], time 28 day) of 2.8 g, an LIVER ([…], time 7 day) of 12.3 g and an LIVER ([…], time 14 day) of 15 g. It also gave an LIVER ([…], time 28 day) of 17.1 g, an A/G ([…], time 7 day) of 1.5 and an ALP ([…], time 7 day) of 970.4 IU/L. It also gave an ALT ([…], time 7 day) of 36 IU/L, an AST ([…], time 7 day) of 66 IU/L and a BUN ([…], time 7 day) of 14.4 mg/dL. The CRE ([…], time 7 day) was 0.4 mg/dL, the Ca ([…], time 7 day) was 10.8 mg/dL and the Cl ([…], time 7 day) was 102.2 meq/L. For the same compound, the DBIL ([…], time 7 day) was 0.06 mg/dL, the GLC ([…], time 7 day) was 202.6 mg/dL and the IP ([…], time 7 day) was 6.7 mg/dL. The K ([…], time 7 day) was 3.8 meq/L, the LDH ([…], time 7 day) was 205.8 IU/L and the Na ([…], time 7 day) was 140.8 meq/L. It also gave a PL ([…], time 7 day) of 143.4 mg/dL, an RALB ([…], time 7 day) of 3.3 g/dL and a TBIL ([…], time 7 day) of 0.1 mg/dL. The TC ([…], time 7 day) was 73.8 mg/dL, the TG ([…], time 7 day) was 75.6 mg/dL and the TP ([…], time 7 day) was 5.5 g/dL. For the same compound, the gamma-GTP ([…], time 7 day) was 0.8 IU/L, the A/G ([…], time 14 day) was 1.4 and the ALP ([…], time 14 day) was 736 IU/L. It also gave an ALT ([…], time 14 day) of 33.8 IU/L, an AST ([…], time 14 day) of 59.6 IU/L and a BUN ([…], time 14 day) of 15.8 mg/dL. For the same compound, the CRE ([…], time 14 day) was 0.4 mg/dL, the Ca ([…], time 14 day) was 10.7 mg/dL and the Cl ([…], time 14 day) was 100.8 meq/L. For the same compound, the DBIL ([…], time 14 day) was 0.076 mg/dL, the GLC ([…], time 14 day) was 232.4 mg/dL and the IP ([…], time 14 day) was 6.6 mg/dL. The K ([…], time 14 day) was 3.5 meq/L, the LDH ([…], time 14 day) was 211.4 IU/L and the Na ([…], time 14 day) was 139.8 meq/L. It also gave a PL ([…], time 14 day) of 148.8 mg/dL, an RALB ([…], time 14 day) of 3.3 g/dL and a TBIL ([…], time 14 day) of 0.1 mg/dL. The TC ([…], time 14 day) was 74 mg/dL, the TG ([…], time 14 day) was 110.4 mg/dL and the TP ([…], time 14 day) was 5.7 g/dL. The gamma-GTP ([…], time 14 day) was 1 IU/L, the A/G ([…], time 28 day) was 1.4 and the ALP ([…], time 28 day) was 568 IU/L. For the same compound, the ALT ([…], time 28 day) was 33.6 IU/L, the AST ([…], time 28 day) was 60.2 IU/L and the BUN ([…], time 28 day) was 15.6 mg/dL. The CRE ([…], time 28 day) was 0.5 mg/dL, the Ca ([…], time 28 day) was 10.7 mg/dL and the Cl ([…], time 28 day) was 102.6 meq/L. It also gave a DBIL ([…], time 28 day) of 0.084 mg/dL, a GLC ([…], time 28 day) of 221 mg/dL and an IP ([…], time 28 day) of 6 mg/dL. For the same compound, the K ([…], time 28 day) was 3.6 meq/L, the LDH ([…], time 28 day) was 205.2 IU/L and the Na ([…], time 28 day) was 140.6 meq/L. The PL ([…], time 28 day) was 142.4 mg/dL, the RALB ([…], time 28 day) was 3.6 g/dL and the TBIL ([…], time 28 day) was 0.1 mg/dL. For the same compound, the TC ([…], time 28 day) was 70.8 mg/dL, the TG ([…], time 28 day) was 104.6 mg/dL and the TP ([…], time 28 day) was 6.2 g/dL. It also gave a gamma-GTP ([…], time 28 day) of 1 IU/L.

— ChEMBL document CHEMBL3885861, “Open TG-GATES”
